As a reminder, the Ki is a measure of affinity in units of concentration, obtained from inhibition or displacement. The low end stands for tighter binding, the high end for weaker binding. For orientation: EC50 means the concentration that produces a half-maximal response. Read a low EC50 as a more potent agent.

Values joined by “and” are separate entries in the source; they are usually repeats but may differ in a detail not shown here. Equal entries are not always repeated. Structures can show the parent of a compound that is named as a salt.

The target in assay [1] is T1, D1 (Homo sapiens, UniProt P21728). As to the kind of experiment: Human D1 receptor binding assay ([3H]-SCH23390 competition). The following applies: Human D1 Receptor Binding, Ki (nM), Geometric mean of 2-4 determinations, a: >=5 determinations, d: single determination.
T1 sequence (P21728 whole entry): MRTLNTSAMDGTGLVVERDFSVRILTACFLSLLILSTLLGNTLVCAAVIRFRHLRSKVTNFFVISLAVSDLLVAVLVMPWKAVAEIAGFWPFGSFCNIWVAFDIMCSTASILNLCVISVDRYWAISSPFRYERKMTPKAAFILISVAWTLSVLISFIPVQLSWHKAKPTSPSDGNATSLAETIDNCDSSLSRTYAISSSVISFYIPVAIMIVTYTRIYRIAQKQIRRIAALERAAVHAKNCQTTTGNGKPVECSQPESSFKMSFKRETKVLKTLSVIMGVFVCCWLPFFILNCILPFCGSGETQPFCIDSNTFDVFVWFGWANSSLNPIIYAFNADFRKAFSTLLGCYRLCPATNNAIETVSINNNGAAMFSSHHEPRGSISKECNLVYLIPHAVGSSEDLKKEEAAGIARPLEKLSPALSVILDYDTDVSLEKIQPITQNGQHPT
The target of assay [2] is T1, D1. As to the kind of experiment: D1 cAMP HTRF assay (HEK293T/hD1#1 stable cell line). It counts as cell-based. The arrangement: expressed in transfected cells. The method in brief:
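Agonist-mode HTRF cAMP assay in HEK293T/hD1#1 stable cells resuspended in PBS with 0.5 μM IBMX; compound exposure 30 min at room temperature, then cAMP-D2 and anti-cAMP-cryptate detection for 1 h. EC50 from raw ratio data or from cAMP levels interpolated on a standard curve; percent effect versus controls.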
Background: Time-resolved FRET reads energy transfer from a long-lived donor to a nearby acceptor.

`Cc1ncnc(C)c1-c1ccc(Oc2nccc3occc23)cc1F` [Example 69, 4-[4-(4,6-dimethylpyrimidin-5-yl)-3-fluorophenoxy]furo[3,2-c]pyridine]: the affinity at D1 [1], expressed as Ki, was 77.7 nM. Besides, on D1 [2], the EC50 is 201 nM and 203 nM.
Consider `Cc1cc(Oc2nccc3occc23)ccc1-c1c(C)ncc(=O)n1C` (single isomer, unassigned) [Example 121, (−)-6-[4-(furo[3,2-c]pyridin-4-yloxy)-2-methylphenyl]-1,5-dimethylpyrazin-2(1H)-one], for which the affinity on D1 [1] corresponds to a Ki of 9.42 nM. The compound also gave an EC50 on D1 [2] of 50.4 nM.
At D1 [1], `Cc1n[nH]c(=O)c(C)c1-c1ccc(Oc2nccc3occ(Br)c23)cc1` [Example 211, 5-{4-[(3-bromofuro[3,2-c]pyridin-4-yl)oxy]phenyl}-4,6-dimethylpyridazin-3(2H)-one] had a Ki of 6.86 nM. In addition, the response at D1 [2] was half-maximal at 98 nM (EC50).
For the compound `Cc1ncncc1-c1ccc(Oc2nccc3occc23)cc1C(C)(C)C#N` [Example 122, 2-[5-(furo[3,2-c]pyridin-4-yloxy)-2-(4-methylpyrimidin-5-yl)phenyl]-2-methylpropanenitrile], at D1 [1], the affinity corresponds to a Ki of 211 nM. At D1 [2], this compound returned an EC50 of 4590 nM.
For `Cc1cc(Oc2nccc3occc23)ccc1-c1cnncc1C` [Example 154, 4-[3-methyl-4-(5-methylpyridazin-4-yl)phenoxy]furo[3,2-c]pyridine], in that order: 402 nM and 2160 nM.
For `Cc1cc(Oc2nccc3occc23)ccc1-c1c(C)cnnc1C` (single isomer, unassigned) [Example 14, H-4-[4-(3,5-Dimethylpyridazin-4-yl)-3-methylphenoxy]furo[3,2-c]pyridine], affinity at D1 [1] was put at a Ki of 212 nM. Besides, at D1 [2], the EC50 was 1040 nM.
At D1 [1], `COc1cc(Oc2nccc3occc23)ccc1-c1cccnc1C` [Example 181, 4-[3-methoxy-4-(2-methylpyridin-3-yl)phenoxy]furo[3,2-c]pyridine] yielded a Ki of 53.1 nM. The EC50 on D1 [2] was found to be 803 nM.
With `Cc1cc(Oc2nccc3occc23)ccc1-c1c(C)ncnc1N1Cc2cnn(C)c2C1` [Example 164, 4-{3-methyl-4-[4-methyl-6-(1-methyl-4,6-dihydropyrrolo[3,4-c]pyrazol-5(1H)-yl)pyrimidin-5-yl]phenoxy}furo[3,2-c]pyridine, formate salt], the affinity on D1 [1], expressed as Ki, was 15.2 nM. Also, the EC50 on D1 [2] is 625 nM.
Taken in the same sequence, the figures for `Cc1cc(N(C)c2nccc3occc23)ccc1-c1cccc2nccn12` [Example 55, N-[4-(imidazo[1,2-a]pyridin-5-yl)-3-methylphenyl]-N-methylfuro[3,2-c]pyridin-4-amine] were 244 nM and over 29900 nM.
As for `Cc1cc(Nc2nccc3occc23)ccc1-c1cccc2nccn12` [Example 17, N-[4-(Imidazo[1,2-a]pyridin-5-yl)-3-methylphenyl]furo[3,2-c]pyridin-4-amine], on D1 [1], the affinity corresponds to a Ki of 111 nM. This compound showed an EC50 on D1 [2] of 957 nM.
At D1 [1], `Cc1cc(Oc2nccc3occc23)ccc1-c1c(C)ncnc1C` [Example 1, 4-[4-(4,6-Dimethylpyrimidin-5yl)-3-methylphenoxy]furo[3,2-c]pyridine] registered a Ki of 27.3 nM. Further, the EC50 at D1 [2] was 135 nM and 129 nM.
At D1 [1], `OCCCOc1cc(Oc2nccc3occc23)ccc1-c1cccc2nccn12` [Example 195, 3-[5-(furo[3,2-c]pyridin-4-yloxy)-2-(imidazo[1,2-a]pyridin-5-yl)phenoxy]propan-1-ol, trifluoroacetate salt] had a Ki of 90.4 nM. At D1 [2], this compound had an EC50 of 565 nM.
Turning to `c1cc2occc2c(Oc2ccc(-c3nccc4occc34)cc2)n1` [Example 119, 4-[4-(furo[3,2-c]pyridin-4-yloxy)phenyl]furo[3,2-c]pyridine], at D1 [1], the Ki came to 2240 nM. The EC50 on D1 [2] was over 11200 nM.
Taken in the same sequence, the figures for `Cc1cc(Oc2nccc3occc23)ccc1-c1cccc2cnn(C)c12` [Example 200, 4-[3-methyl-4-(1-methyl-1H-indazol-7-yl)phenoxy]furo[3,2-c]pyridine] were 111 nM and 1240 nM.

(Values after patent US20150291625A1 (PFIZER INC., priority 2012, published 2015).)
